SMILES strings stand for the structures.

One test concerns the target T1, human PPARγ (Homo sapiens, UniProt P37231).
T1 construct: expressed in transfected cells
T1 sequence (P37231 1-477 isoform P37231-2): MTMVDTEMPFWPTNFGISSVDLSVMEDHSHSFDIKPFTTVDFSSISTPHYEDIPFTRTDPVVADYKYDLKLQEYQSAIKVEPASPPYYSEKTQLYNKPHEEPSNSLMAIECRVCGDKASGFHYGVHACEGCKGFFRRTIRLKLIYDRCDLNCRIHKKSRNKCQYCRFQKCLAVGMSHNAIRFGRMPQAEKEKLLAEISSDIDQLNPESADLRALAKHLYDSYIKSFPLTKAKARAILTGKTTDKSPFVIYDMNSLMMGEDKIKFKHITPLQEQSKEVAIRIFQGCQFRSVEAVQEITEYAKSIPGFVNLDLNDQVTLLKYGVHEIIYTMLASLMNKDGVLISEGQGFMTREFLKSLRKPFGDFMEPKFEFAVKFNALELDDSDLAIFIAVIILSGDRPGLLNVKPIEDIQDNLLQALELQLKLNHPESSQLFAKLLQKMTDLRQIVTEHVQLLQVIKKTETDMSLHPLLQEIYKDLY
T1 sequence (P19793 1-462 partner): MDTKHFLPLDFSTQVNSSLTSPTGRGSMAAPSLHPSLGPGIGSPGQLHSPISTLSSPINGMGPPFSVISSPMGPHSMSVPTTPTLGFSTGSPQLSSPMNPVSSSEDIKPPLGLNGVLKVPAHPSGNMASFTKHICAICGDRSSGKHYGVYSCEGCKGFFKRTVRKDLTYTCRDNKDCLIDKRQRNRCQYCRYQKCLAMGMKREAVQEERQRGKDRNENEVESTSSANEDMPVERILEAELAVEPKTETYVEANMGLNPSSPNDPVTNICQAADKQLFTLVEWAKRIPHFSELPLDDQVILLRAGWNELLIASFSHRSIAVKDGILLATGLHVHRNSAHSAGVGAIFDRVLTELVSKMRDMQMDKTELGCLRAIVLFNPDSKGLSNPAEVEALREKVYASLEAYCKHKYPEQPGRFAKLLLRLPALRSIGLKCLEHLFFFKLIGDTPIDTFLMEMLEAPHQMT
Kind of test: PPARγ agonistic activity: luciferase reporter assay in PPARγ:RXRα:4ERPP/CHO-K1 cells. The test is classed as cell-based. The settings on record: CHO-K1, test compound 10^−6 M; luciferase activity of control compound X (1 μM) = 100%, non-administration group = 0%. In short, it runs like this:
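Activity is expressed relative to untreated cells (0%) and 1 μM reference compound X (100%), from luciferase luminescence. Reporter line: PPARγ:RXRα:4ERPP/CHO-K1, exposed to compound for one day at 37 °C in F12 medium containing 0.1% fatty-acid-free BSA.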

The next test has as its target T2, human AT1 receptor (Homo sapiens, UniProt P30556).
T2 construct: expressed in transfected cells; membrane fraction
T2 sequence (P30556 1-359): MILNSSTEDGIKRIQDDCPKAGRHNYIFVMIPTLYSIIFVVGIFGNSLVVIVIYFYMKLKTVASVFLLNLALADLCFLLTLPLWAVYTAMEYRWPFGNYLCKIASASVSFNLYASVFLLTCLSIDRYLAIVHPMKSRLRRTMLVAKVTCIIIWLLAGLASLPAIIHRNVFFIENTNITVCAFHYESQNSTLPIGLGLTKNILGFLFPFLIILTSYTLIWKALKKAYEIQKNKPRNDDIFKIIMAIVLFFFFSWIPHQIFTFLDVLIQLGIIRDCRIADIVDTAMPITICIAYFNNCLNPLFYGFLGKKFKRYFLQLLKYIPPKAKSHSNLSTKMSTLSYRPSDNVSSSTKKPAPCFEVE
Kind of test: AT1 receptor antagonistic activity: [125I]-angiotensin II binding assay on human AT1 receptor-expressing CHO-K1 cellular membrane fraction. The settings on record: 22.5 pM [125I]-angiotensin II, 1 hr room temperature. In short, it runs like this: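 Competition binding used radiolabelled angiotensin II on stably transfected CHO-K1 membrane fractions in Tris pH 7.4/MgCl2 buffer, optionally containing 0.3 mg/mL fatty acid-free BSA, 1 hr at room temperature. Filtration onto GF/C separated bound tracer, and nonspecific binding was measured with candesartan.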

`CCCc1c(Cc2ccc(-c3ccccc3-c3noc(=O)[nH]3)cc2F)c(=O)n([C@H]2CC[C@H](OC(CC)C(C)(C)O)CC2)c2ncnn12` (stereo partly drawn) [Example 355, 4-[trans-4-(1-ethyl-2-hydroxy-2-methylpropoxy)cyclohexyl]-6-{[3-fluoro-2′-(5-oxo-4,5-dihydro-1,2,4-oxadiazol-3-yl)biphenyl-4-yl]methyl}-7-propyl[1,2,4]triazolo[1,5-a]pyrimidin-5(4H)-one] had an activation at 1 µM on human PPARγ of 25%. Also, on human AT1 receptor, the IC50 (usually the concentration at which inhibition is half-maximal) was found to be 1.7 nM.

At human PPARγ, `CCCc1c(Cc2ccc(-c3ccccc3-c3noc(=O)[nH]3)cc2F)c(=O)n([C@H]2CC[C@H](OCC(C)(C)O)CC2)c2nc(C)nn12` [Example 360, 6-{[3-fluoro-2′-(5-oxo-4,5-dihydro-1,2,4-oxadiazol-3-yl)biphenyl-4-yl]methyl}-4-[trans-4-(2-hydroxy-2-methylpropoxy)cyclohexyl]-2-methyl-7-propyl[1,2,4]triazolo[1,5-a]pyrimidin-5(4H)-one] yielded an activation at 1 µM of 19%. At human AT1 receptor, this molecule yielded an IC50 of 1.7 nM.

As for `CCCc1c(Cc2ccc(-c3ccccc3-c3noc(=O)[nH]3)cc2F)c(=O)n([C@H]2CC[C@H](OC3(C(C)(C)O)CC3)CC2)c2ncnn12` [Example 362, 6-{[3-fluoro-2′-(5-oxo-4,5-dihydro-1,2,4-oxadiazol-3-yl)biphenyl-4-yl]methyl}-4-(trans-4-{[1-(1-hydroxy-1-methylethyl)cyclopropyl]oxy}cyclohexyl)-7-propyl[1,2,4]triazolo[1,5-a]pyrimidin-5(4H)-one], at human PPARγ, the activation at 1 µM was determined as 26%. This molecule showed an IC50 on human AT1 receptor of 2.5 nM.

Turning to `CCCc1c(Cc2ccc(-c3ccccc3-c3noc(=O)[nH]3)cc2)c(=O)n([C@H]2CC[C@H](OC3(C(C)(C)O)CC3)CC2)c2ncnn12` [Example 363, 4-(trans-4-{[1-(1-hydroxy-1-methylethyl)cyclopropyl]oxy}cyclohexyl)-6-{[2′-(5-oxo-4,5-dihydro-1,2,4-oxadiazol-3-yl)biphenyl-4-yl]methyl}-7-propyl[1,2,4]triazolo[1,5-a]pyrimidin-5(4H)-one], the activation at 1 µM at human PPARγ was determined as 22%. On human AT1 receptor, this molecule displayed an IC50 of 2.3 nM.

Molecule `CCCc1c(Cc2ccc(-c3ccccc3-c3noc(=O)[nH]3)cc2F)c(=O)n([C@H]2CC[C@H](OC(C)C(O)(CF)CF)CC2)c2ncnn12` (stereo partly drawn) [Example 364, 4-{trans-4-[3-fluoro-2-(fluoromethyl)-2-hydroxy-1-methylpropoxy]cyclohexyl}-6-{[3-fluoro-2′-(5-oxo-4,5-dihydro-1,2,4-oxadiazol-3-yl)biphenyl-4-yl]methyl}-7-propyl[1,2,4]triazolo[1,5-a]pyrimidin-5(4H)-one] showed an activation at 1 µM on human PPARγ of 29%. This molecule registered an IC50 on human AT1 receptor of 2.8 nM.

Take `CCCc1c(Cc2ccc(-c3ccccc3-c3noc(=O)[nH]3)cc2F)c(=O)n([C@H]2C[C@H](OCC(C)(C)O)C2)c2ncnn12` [Example 367, 6-{[3-fluoro-2′-(5-oxo-4,5-dihydro-1,2,4-oxadiazol-3-yl)biphenyl-4-yl]methyl}-4-[trans-3-(2-hydroxy-2-methylpropoxy)cyclobutyl]-7-propyl[1,2,4]triazolo[1,5-a]pyrimidin-5(4H)-one]: the activation at 1 µM on human PPARγ was found to be 25%. Further, on human AT1 receptor, the IC50 is 2.2 nM.

The molecule `CCCc1c(Cc2ccc(-c3ccccc3-c3noc(=O)[nH]3)cc2F)c(=O)n([C@H]2CC[C@](C)(OCC(C)(C)O)CC2)c2nc(C)nn12` [Example 368, 6-{[3-fluoro-2′-(5-oxo-4,5-dihydro-1,2,4-oxadiazol-3-yl)biphenyl-4-yl]methyl}-4-[trans-4-(2-hydroxy-2-methylpropoxy)-4-methylcyclohexyl]-2-methyl-7-propyl[1,2,4]triazolo[1,5-a]pyrimidin-5(4H)-one] registered an activation at 1 µM on human PPARγ of 19%. At human AT1 receptor, this molecule came in with an IC50 of 2.2 nM.

Molecule `CCCc1c(Cc2ccc(-c3ccccc3-c3noc(=O)[nH]3)cc2F)c(=O)n([C@H]2CC[C@H](OC(C)C3(O)CCC3)CC2)c2ncnn12` (stereo partly drawn) [Example 371, 6-{[3-fluoro-2′-(5-oxo-4,5-dihydro-1,2,4-oxadiazol-3-yl)biphenyl-4-yl]methyl}-4-{trans-4-[1-(1-hydroxycyclobutyl)ethoxy]cyclohexyl}-7-propyl[1,2,4]triazolo[1,5-a]pyrimidin-5(4H)-one] returned an activation at 1 µM on human PPARγ of 33%. The same molecule yielded an IC50 at human AT1 receptor of 2.1 nM.

As for `CCCc1c(Cc2ccc(-c3ccccc3-c3noc(=O)[nH]3)cc2)c(=O)n(C2CCN(Cc3ccccc3)CC2)c2ncnn12` [Example 373, 4-(1-benzylpiperidin-4-yl)-6-{[2′-(5-oxo-4,5-dihydro-1,2,4-oxadiazol-3-yl)biphenyl-4-yl]methyl}-7-propyl[1,2,4]triazolo[1,5-a]pyrimidin-5(4H)-one], the activation at 1 µM at human PPARγ came to 16%. On human AT1 receptor, this molecule displayed an IC50 of 3.2 nM.

`CCCc1c(Cc2ccc(-c3ccccc3-c3noc(=O)[nH]3)cc2)c(=O)n(C2CCC(C(C)(C)O)CC2)c2ncnn12` (stereo not shown) [Example 376, 4-[4-(1-hydroxy-1-methylethyl)cyclohexyl]-6-{[2′-(5-oxo-4,5-dihydro-1,2,4-oxadiazol-3-yl)biphenyl-4-yl]methyl}-7-propyl[1,2,4]triazolo[1,5-a]pyrimidin-5(4H)-one] displayed an activation at 1 µM at human PPARγ of 19%. In addition, the IC50 on human AT1 receptor stood at 1.2 nM.

Turning to `CCCc1c(Cc2ccc(-c3ccccc3-c3noc(=O)[nH]3)cc2)c(=O)n([C@H]2CC[C@H](OCC(C)O)CC2)c2ncnn12` (stereo partly drawn) [Example 379, 4-[trans-4-(2-hydroxypropoxy)cyclohexyl]-6-{[2′-(5-oxo-4,5-dihydro-1,2,4-oxadiazol-3-yl)biphenyl-4-yl]methyl}-7-propyl[1,2,4]triazolo[1,5-a]pyrimidin-5(4H)-one], on human PPARγ, the activation at 1 µM worked out at 34%. On human AT1 receptor, this molecule showed an IC50 of 2.2 nM.

In turn, `CCCc1c(Cc2ccc(-c3ccccc3-c3noc(=O)[nH]3)cc2)c(=O)n(C2CCN(c3ccc(O)cc3)CC2)c2ncnn12` [Example 382, 4-[1-(4-hydroxyphenyl)piperidin-4-yl]-6-{[2′-(5-oxo-4,5-dihydro-1,2,4-oxadiazol-3-yl)biphenyl-4-yl]methyl}-7-propyl[1,2,4]triazolo[1,5-a]pyrimidin-5(4H)-one] displayed an activation at 1 µM on human PPARγ of 35%. The IC50 at human AT1 receptor is 2.9 nM.

On to `CCCc1c(Cc2ccc(-c3ccccc3-c3noc(=O)[nH]3)cc2)c(=O)n([C@H]2CC[C@](C)(OCC(C)(C)O)CC2)c2ncnn12` [Example 385, 4-[trans-4-(2-hydroxy-2-methylpropoxy)-4-methylcyclohexyl]-6-{[2′-(5-oxo-4,5-dihydro-1,2,4-oxadiazol-3-yl)biphenyl-4-yl]methyl}-7-propyl[1,2,4]triazolo[1,5-a]pyrimidin-5(4H)-one], for which, at human PPARγ, the activation at 1 µM turned out to be 23%. This molecule returned an IC50 at human AT1 receptor of 2 nM.

On human PPARγ, `CCCc1c(Cc2ccc(-c3ccccc3-c3noc(=O)[nH]3)cc2)c(=O)n([C@H]2CC[C@]3(CCC(CO)O3)CC2)c2ncnn12` (stereo partly drawn) [Example 391, 4-[(5S,8S)-2-(hydroxymethyl)-1-oxaspiro[4.5]dec-8-yl]-6-{[2′-(5-oxo-4,5-dihydro-1,2,4-oxadiazol-3-yl)biphenyl-4-yl]methyl}-7-propyl[1,2,4]triazolo[1,5-a]pyrimidin-5(4H)-one] yielded an activation at 1 µM of 28%. The molecule also registered an IC50 at human AT1 receptor of 3.1 nM.

(Values after patent US8283353B2, “Fused ring compound and use thereof” (Takeda Pharmaceutical Company Limited, priority 2009, dated 2012).)
